In patent US8598132B2, “Glycosylated indolocarbazoles, method for obtaining same and uses thereof” (Universidad de Oviedo, priority 2008, dated 2013):

Legend:
Assay type in all cases: biochemical
AmpKa1 = target: T1, AmpKa1 (Homo sapiens, UniProt Q13131); assay: LabChip (Caliper) kinase assay, AmpKa1; settings: read-out: remaining kinase activity (in %) / percentage of inhibition; for inhibition at 0.01 µM: compound at 10 nM; for inhibition at 0.1 µM: compound at 100 nM
T1 construct: purchased Carna Biosciences
T1 sequence (Q13131 whole entry): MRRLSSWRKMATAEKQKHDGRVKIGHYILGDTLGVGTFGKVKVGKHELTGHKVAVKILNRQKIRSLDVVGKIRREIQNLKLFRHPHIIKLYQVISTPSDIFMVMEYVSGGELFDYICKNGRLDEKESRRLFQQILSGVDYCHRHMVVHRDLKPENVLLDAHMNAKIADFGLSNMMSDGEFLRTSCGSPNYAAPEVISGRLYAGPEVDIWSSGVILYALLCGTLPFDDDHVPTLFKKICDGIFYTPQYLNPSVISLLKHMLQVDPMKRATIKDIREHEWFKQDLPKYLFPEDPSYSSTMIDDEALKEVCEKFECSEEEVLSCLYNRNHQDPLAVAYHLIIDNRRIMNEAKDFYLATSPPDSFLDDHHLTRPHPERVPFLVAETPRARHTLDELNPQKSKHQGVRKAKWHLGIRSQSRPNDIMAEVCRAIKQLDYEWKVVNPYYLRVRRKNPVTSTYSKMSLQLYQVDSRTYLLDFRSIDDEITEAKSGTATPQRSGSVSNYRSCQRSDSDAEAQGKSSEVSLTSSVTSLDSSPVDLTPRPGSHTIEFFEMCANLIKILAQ
T1 sequence (Q9Y478 whole entry partner): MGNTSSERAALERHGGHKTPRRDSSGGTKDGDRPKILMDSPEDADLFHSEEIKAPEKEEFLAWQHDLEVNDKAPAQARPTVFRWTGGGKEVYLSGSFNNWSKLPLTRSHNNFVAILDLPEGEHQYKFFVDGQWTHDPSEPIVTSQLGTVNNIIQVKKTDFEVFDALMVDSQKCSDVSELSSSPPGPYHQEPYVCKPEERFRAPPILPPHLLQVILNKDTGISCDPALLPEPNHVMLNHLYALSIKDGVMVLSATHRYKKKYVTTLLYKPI
T1 sequence (P54619 whole entry partner): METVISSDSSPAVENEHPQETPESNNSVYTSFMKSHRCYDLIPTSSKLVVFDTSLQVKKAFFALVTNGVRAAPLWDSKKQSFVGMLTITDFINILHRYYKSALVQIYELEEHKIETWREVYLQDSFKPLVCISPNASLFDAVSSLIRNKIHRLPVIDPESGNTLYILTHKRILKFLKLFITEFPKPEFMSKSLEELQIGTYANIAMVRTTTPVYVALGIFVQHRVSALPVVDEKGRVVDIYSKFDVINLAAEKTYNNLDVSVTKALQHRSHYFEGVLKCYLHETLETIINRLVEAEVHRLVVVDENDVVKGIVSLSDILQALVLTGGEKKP
Procedure: (§1) The analysis of kinase activity described here was performed using LabChip (Caliper Life Sciences), specifically the Caliper LC3000 and the EZ Reader II instruments.
(§2) The kinase assay used measures the conversion of a fluorescent peptide (substrate) to a phosphorylated product. The reaction mixture, in a microplate well, is introduced by a capillary in a chip where the non-phosphorylated substrate and the phosphorylated product are separated by […]. The intensity of the fluorescent signal over time is related to the reaction progress. The phosphorylated product migrates quicker than the non-phosphorylated substrate and the signals of the two forms of the peptide appear as differentiated peaks. The Caliper determines the peak height and calculates the ratio of product to the peak sum (P/(P+S)). This value is used to compare wells with compounds and wells with controls and thus determine the % of inhibition for the given product.
(§3) The followings kinases were used for the enzymatic inhibition studies, between brackets the value of the Michaelis-Menten constant, Km, of the ATP (Adenosine triphosphate) for each kinase, in μM: obtained from Carna Biosciences: MAPKAPK2 (4.6), AurA (3.6), AurB (5), PKCζ (3.8), RSK1 (23.3), PRAK (5), Erk1 (33.4), PKD2 (32.1), CK1d (16.3), CHK1 (33), ABL (61.7), FYN (36), LYNa (17), CHK2 (57.8), MET (79.5), LCK (28.5), SRC (38), GSK3β (7.3), Erk2 (62.1), PKACα (1.7), AKT2 (186.1), INSR (871.8), p38a (396.5), AKT1(48), MSK1 (21.2), PKCβ2 (84.8), ROCK2 (3.3), PIM2 (4.9), AMPK (38.6), KDR (164.8), IRAK4 (196.5), SGK1 (121.8), SYK (33.5); obtained from Invitrogen: CDK2 (57.6), BTK (123), HGK (80); obtained from Upstate: MST2 (36.6), PKGα (16), PAK2 (1.9), IGF1R (320), FGFR1 (171), MARK1 (33), CAMK2δ (22.4), c-TAK1 (66), DYRK1a (18.1), CaMK4 (3.9), FLT3 (350), c-Raf (6.2), P70S6K (95).
(§4) The compounds were dissolved in 100% DMSO and were diluted at 25 times the final concentration desired for the assay. In the case of the determination of Cl50, serial dilutions were made to reach eight concentrations and give rise to the inhibition curve. 1 μL of each concentration is transferred, in duplicate to a 384-well microplate. 12 μL of enzymatic buffer is added to each well containing purified kinase (several suppliers as indicated above), 100 mM HEPES, pH 7.5, 1 mM DTT (Calbiochem), 0.002% Brij-35 (Sigma) and also in presence of 10 mM MgCl2 as cofactor, except for INSR and IRAK4 wherein 10 mM MnCl2 is used instead of MgCl2. For the kinases CAMK26 and CAMK4, 1 mM CaCl2 and 6.7 μg/mL of calmodulin are also added. For KDR kinase, 0.05% of the CHAPSO detergent is added. For the c-Raf kinase, 10 mM MnCl2 is added. For PKCβ2 0.02 μg/mL of PS/PMA is added. For PKGα se 10 μM of cGMP (cyclic guanosine monophosphate) is added. The compound and the enzyme are left for 15 minutes preincubation and, then, the following are added to each well: 12 μL of peptide buffer/ATP containing 100 mM HEPES, pH 7.5, 1.5 μM peptide marker with fluorescein (specific for the corresponding kinase), ATP (at concentration KM), and 0.002% Brij-35 to start the reaction. Generally, the reactions are incubated for 1-1.5 h at ambient temperature to obtain an adequate conversion (15-40%) of the peptide to the phosphorylated product. The reactions were ended by the addition of 45 μL of buffer containing 0 mM EDTA. The microplates were read by the LabChip 3000 using a 12-channel LabChip. The P/(P+S) values were obtained as described above and the CI50 curves were generated using XIfit. […]

GSK3b = target: T2, GSK3b (Homo sapiens, UniProt P49841); assay: LabChip (Caliper) kinase assay, GSK3b; settings: read-out: remaining kinase activity (in %) / percentage of inhibition; for inhibition at 0.01 µM: compound at 10 nM; for inhibition at 0.1 µM: compound at 100 nM
T2 construct: purchased Carna Biosciences
T2 sequence (P49841 whole entry): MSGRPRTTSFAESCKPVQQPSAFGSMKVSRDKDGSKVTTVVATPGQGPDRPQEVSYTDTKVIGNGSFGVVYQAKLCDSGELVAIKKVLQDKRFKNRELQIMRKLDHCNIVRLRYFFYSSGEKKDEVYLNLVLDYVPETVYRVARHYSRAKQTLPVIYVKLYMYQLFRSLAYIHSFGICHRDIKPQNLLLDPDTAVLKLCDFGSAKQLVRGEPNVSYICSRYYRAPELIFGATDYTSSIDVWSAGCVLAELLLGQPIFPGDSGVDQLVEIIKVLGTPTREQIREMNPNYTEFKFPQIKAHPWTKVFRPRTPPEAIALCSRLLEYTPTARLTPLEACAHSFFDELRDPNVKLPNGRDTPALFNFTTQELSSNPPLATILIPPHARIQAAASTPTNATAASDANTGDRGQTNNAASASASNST
Procedure: as §1, §2, §3, §4

HGK = target: T3, HGK (Homo sapiens, UniProt O95819); assay: LabChip (Caliper) kinase assay, HGK; settings: for inhibition at 0.01 µM: compound at 10 nM; for inhibition at 0.01 µM / inhibition at 0.1 µM: read-out: remaining kinase activity (in %) / percentage of inhibition; for inhibition at 0.1 µM: compound at 100 nM; for IC50: ATP at Km, read-out: CI50 (the source's name)
T3 construct: purchased Invitrogen
T3 sequence (O95819 whole entry, species assumed): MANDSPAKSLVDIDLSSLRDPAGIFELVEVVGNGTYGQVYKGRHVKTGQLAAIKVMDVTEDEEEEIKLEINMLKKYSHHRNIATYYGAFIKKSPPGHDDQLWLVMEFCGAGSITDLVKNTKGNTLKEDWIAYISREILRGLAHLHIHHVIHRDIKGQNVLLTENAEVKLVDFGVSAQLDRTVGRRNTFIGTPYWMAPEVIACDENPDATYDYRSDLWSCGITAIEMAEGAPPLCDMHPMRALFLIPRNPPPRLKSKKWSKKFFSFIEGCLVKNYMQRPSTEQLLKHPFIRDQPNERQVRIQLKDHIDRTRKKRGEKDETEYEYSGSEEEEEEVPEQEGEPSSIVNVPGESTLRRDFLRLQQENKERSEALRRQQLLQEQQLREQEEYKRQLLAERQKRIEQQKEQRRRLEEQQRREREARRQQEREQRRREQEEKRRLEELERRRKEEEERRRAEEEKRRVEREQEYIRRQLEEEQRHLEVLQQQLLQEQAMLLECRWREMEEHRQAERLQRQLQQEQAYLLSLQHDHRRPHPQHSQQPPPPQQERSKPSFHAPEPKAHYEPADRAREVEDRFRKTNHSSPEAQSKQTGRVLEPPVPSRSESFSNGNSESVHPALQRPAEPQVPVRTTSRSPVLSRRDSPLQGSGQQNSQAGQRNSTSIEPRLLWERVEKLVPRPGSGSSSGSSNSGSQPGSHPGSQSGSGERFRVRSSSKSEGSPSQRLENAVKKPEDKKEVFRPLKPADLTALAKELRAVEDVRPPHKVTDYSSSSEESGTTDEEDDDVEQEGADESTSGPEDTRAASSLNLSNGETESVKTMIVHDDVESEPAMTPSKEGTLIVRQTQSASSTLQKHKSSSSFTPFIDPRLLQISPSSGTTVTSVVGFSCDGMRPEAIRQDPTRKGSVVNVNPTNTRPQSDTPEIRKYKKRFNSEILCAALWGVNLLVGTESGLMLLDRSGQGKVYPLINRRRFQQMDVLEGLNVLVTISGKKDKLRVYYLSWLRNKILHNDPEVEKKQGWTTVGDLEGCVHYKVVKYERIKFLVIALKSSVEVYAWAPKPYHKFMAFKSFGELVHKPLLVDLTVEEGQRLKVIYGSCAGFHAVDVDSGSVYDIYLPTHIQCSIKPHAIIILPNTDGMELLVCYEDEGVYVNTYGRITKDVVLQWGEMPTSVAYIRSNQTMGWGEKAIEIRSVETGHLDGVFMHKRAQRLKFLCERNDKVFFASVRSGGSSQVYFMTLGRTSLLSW
Procedure: as §1, §2, §3
The compounds were dissolved in 100% DMSO and were diluted at 25 times the final concentration desired for the assay. In the case of the determination of Cl50, serial dilutions were made to reach eight concentrations and give rise to the inhibition curve. 1 μL of each concentration is transferred, in duplicate to a 384-well microplate. 12 μL of enzymatic buffer is added to each well containing purified kinase (several suppliers as indicated above), 100 mM HEPES, pH 7.5, 1 mM DTT (Calbiochem), 0.002% Brij-35 (Sigma) and also in presence of 10 mM MgCl2 as cofactor, except for INSR and IRAK4 wherein 10 mM MnCl2 is used instead of MgCl2. For the kinases CAMK26 and CAMK4, 1 mM CaCl2 and 6.7 μg/mL of calmodulin are also added. For KDR kinase, 0.05% of the CHAPSO detergent is added. For the c-Raf kinase, 10 mM MnCl2 is added. For PKCβ2 0.02 μg/mL of PS/PMA is added. For PKGα se 10 μM of cGMP (cyclic guanosine monophosphate) is added. The compound and the enzyme are left for 15 minutes preincubation and, then, the following are added to each well: 12 μL of peptide buffer/ATP containing 100 mM HEPES, pH 7.5, 1.5 μM peptide marker with fluorescein (specific for the corresponding kinase), ATP (at concentration KM), and 0.002% Brij-35 to start the reaction. Generally, the reactions are incubated for 1-1.5 h at ambient temperature to obtain an adequate conversion (15-40%) of the peptide to the phosphorylated product. The reactions were ended by the addition of 45 μL of buffer containing 0 mM EDTA. The microplates were read by the LabChip 3000 using a 12-channel LabChip. The P/(P+S) values were obtained as described above and the CI50 curves were generated using XIfit.
Table 9a has the 0150 data obtained in pairs of compound-kinase selected from the compounds of formula (VII), (VIII), (IX), (XVI), (XVII) and (XVIII) after taking inhibition measurements at 100 nM and 10 nM. Those couples that provide >70% of inhibition at 10 nM were consider for measuring its IC50. […]

| Structure (SMILES) | inhibition at 0.01 µM (AmpKa1) | inhibition at 0.1 µM (AmpKa1) | inhibition at 0.01 µM (GSK3b) | inhibition at 0.1 µM (GSK3b) | inhibition at 0.01 µM (HGK) | inhibition at 0.1 µM (HGK) | IC50 (HGK) |
| --- | --- | --- | --- | --- | --- | --- | --- |
| C[C@@H]1O[C@@H](n2c3ccccc3c3c4c(c5c6ccccc6[nH]c5c32)C(=O)NC4=O)[C@H](O)[C@H](O)[C@H]1O [formula (III), N^13-1′-β-L-rhamnosylarcyriaflavin] | 1% | 11% | 21% | 72% | 30% | 89% | – |
| C[C@@H]1O[C@@H](n2c3ccccc3c3c4c(c5c6ccccc6[nH]c5c32)C(=O)NC4=O)C[C@H](O)[C@H]1O [formula (IV), N^13-1′-β-L-olivosylarcyriaflavin] | 3% | 21% | 21% | 69% | 9% | 62% | – |
| C[C@]12O[C@H](C[C@@H](O)[C@H]1O)n1c3ccccc3c3c4c(c5c6ccccc6n2c5c31)C(=O)NC4=O [formula (IX), N^12-5′(S)-N^13-1′-(R)-L-digitoxosylarcyriaflavin] | – | – | – | – | – | – | > 10 nM |
| C[C@@H]1O[C@@H](n2c3ccccc3c3c4c(c5c6ccccc6[nH]c5c32)C(=O)NC4=O)C[C@@H](O)[C@H]1O [formula (V), N^13-1′-β-L-digitoxosylarcyriaflavin] | 8% | 28% | 42% | 81% | 54% | 90% | – |
| C[C@H]1O[C@@H](n2c3ccccc3c3c4c(c5c6ccccc6[nH]c5c32)C(=O)NC4=O)C[C@@H](O)[C@@H]1O [formula (VI), N^13-1′-β-D-olivosylarcyriaflavin] | 5% | 33% | 18% | 69% | 35% | 83% | – |
| C[C@]12O[C@H]([C@H](O)[C@H](O)[C@H]1O)n1c3ccccc3c3c4c(c5c6ccccc6n2c5c31)C(=O)NC4=O [formula (VII), N^12-5′(S)-N^13-1′-(R)-L-rhamnosylarcyriaflavin] | – | – | – | – | – | – | 0.78 nM |
| C[C@@H]1O[C@@H](n2c3ccccc3c3c4c(c5c6ccccc6[nH]c5c32)CNC4=O)[C@H](O)[C@H](O)[C@H]1O [formula (XII), N^13-1′-β-L-rhamnosyl-k252c] | 1% | 7% | 3% | 8% | 44% | 91% | – |
| C[C@@H]1O[C@@H](n2c3ccccc3c3c4c(c5c6ccccc6[nH]c5c32)CNC4=O)C[C@H](O)[C@H]1O [formula (XIII), N^13-1′-β-L-olivosyl-k252c] | -3% | 10% | 2% | 9% | 16% | 76% | – |
| C[C@@H]1O[C@@H](n2c3ccccc3c3c4c(c5c6ccccc6[nH]c5c32)CNC4=O)C[C@@H](O)[C@H]1O [formula (XIV), N^13-1′-β-L-digitoxosyl-k252c] | 2% | 1% | 1% | 7% | 20% | 78% | – |
| C[C@H]1O[C@@H](n2c3ccccc3c3c4c(c5c6ccccc6[nH]c5c32)CNC4=O)C[C@@H](O)[C@@H]1O [formula (XV), N^13-1′-β-D-olivosyl-k252c] | -3% | 9% | 0% | 0% | 36% | 89% | – |
| C[C@]12O[C@H](C[C@@H](O)[C@H]1O)n1c3ccccc3c3c4c(c5c6ccccc6n2c5c31)CNC4=O [formula (XVIII), N^12-5′(S)-N^13-1′-(R)-L-digitoxosyl-k252c] | – | – | – | – | – | – | > 10 nM |
